From publication PMC6364417, “Kinase inhibitor library screening identifies synergistic drug combinations effective in sensitive and resistant melanoma cells” (Journal of Experimental & Clinical Cancer Research : CR, 2019)

Key:
Assay in all cases: Kinase inhibitor library screening, PrestoBlue cell viability, 1 or 10 μM, 72 h
[1] = system: IGR37-GP cells (Dabrafenib-resistant)
IGR37 cells (parental) = system: IGR37 cells (parental)
[2] = system: IGR37-XP cells (Vemurafenib-resistant)
501Mel cells (parental) = system: 501Mel cells (parental)
Method in brief: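 Kinase inhibitors added at two fixed concentrations; 72 h exposure; PrestoBlue readout; % viability vs untreated; n ≥ 2 per line.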

A375 cells (parental) = system: A375 cells (parental)
[3] = system: A375-GP cells (Dabrafenib-resistant)
[4] = system: 501Mel-XP cells (Vemurafenib-resistant)
[5] = system: 501Mel-GP cells (Dabrafenib-resistant)
[6] = system: A375-XP cells (Vemurafenib-resistant)

Q: For `Cn1cc(C2=C(c3ccc(Cl)cc3Cl)C(=O)NC2=O)c2ccccc21` [SB 216763], which viability at 1 µM ([1]; Homo sapiens, IGR-37, 72 h, read-out: cell viability, IGR37 GP, 1μΜ) is on record?
A: 105%

Q: And the viability at 10 µM ([1]; Homo sapiens, IGR-37, 72 h, read-out: cell viability, IGR37 GP, 10μΜ)?
A: 88.4%

Q: And the viability at 1 µM (IGR37 cells (parental); Homo sapiens, IGR-37, 72 h, read-out: cell viability, IGR37 Parental, 1μΜ)?
A: 116%

Q: And the viability at 10 µM (IGR37 cells (parental); Homo sapiens, IGR-37, 72 h, read-out: cell viability, IGR37 Parental, 10μΜ)?
A: 99%

Q: What about the viability at 1 µM ([2]; Homo sapiens, IGR-37, 72 h, read-out: cell viability, IGR37 XP, 1μΜ) of the same compound?
A: 111%

Q: What about the viability at 10 µM ([2]; Homo sapiens, IGR-37, 72 h, read-out: cell viability, IGR37 XP, 10μΜ) of the same compound?
A: 65.4%

Q: What about the viability at 1 µM (501Mel cells (parental); Homo sapiens, 72 h, read-out: cell viability, 501Mel Parental, 1μΜ) of the same compound?
A: 101%

Q: And the viability at 10 µM (501Mel cells (parental); Homo sapiens, 72 h, read-out: cell viability, 501Mel Parental, 10μΜ)?
A: 82.6%

Q: What about the viability at 1 µM (A375 cells (parental); Homo sapiens, A-375, 72 h, read-out: cell viability, A375 Parental, 1μΜ) of the same compound?
A: 111%

Q: And the viability at 10 µM (A375 cells (parental); Homo sapiens, A-375, 72 h, read-out: cell viability, A375 Parental, 10μΜ)?
A: 68.1%

Q: And the viability at 1 µM ([3]; Homo sapiens, A-375, 72 h, read-out: cell viability, A375 GP, 1μΜ)?
A: 104%

Q: What about the viability at 10 µM ([3]; Homo sapiens, A-375, 72 h, read-out: cell viability, A375 GP, 10μΜ) of the same compound?
A: 67%

Q: And the viability at 1 µM ([4]; Homo sapiens, 72 h, read-out: cell viability, 501Mel XP, 1μΜ)?
A: 96.9%

Q: And the viability at 10 µM ([4]; Homo sapiens, 72 h, read-out: cell viability, 501Mel XP, 10μΜ)?
A: 73.3%

Q: What about the viability at 1 µM ([5]; Homo sapiens, 72 h, read-out: cell viability, 501Mel GP, 1μΜ) of the same compound?
A: 106%

Q: And the viability at 10 µM ([5]; Homo sapiens, 72 h, read-out: cell viability, 501Mel GP, 10μΜ)?
A: 74.1%

Q: What about the viability at 1 µM ([6]; Homo sapiens, A-375, 72 h, read-out: cell viability, A375 XP, 1μΜ) of the same compound?
A: 109%

Q: What about the viability at 10 µM ([6]; Homo sapiens, A-375, 72 h, read-out: cell viability, A375 XP, 10μΜ) of the same compound?
A: 79.9%

Q: For `O=C1NC(=O)C(c2ccccc2[N+](=O)[O-])=C1Nc1ccc(O)c(Cl)c1` [SB 415286], which cell viability, IGR37 GP, 10μΜ ([1]; IGR37 GP, 10μΜ, 72 h) is on record?
A: 93.7%

Q: What about the “cell viability, IGR37 GP, 1μΜ” value ([1]; IGR37 GP, 1μΜ, 72 h, in %) of the same compound?
A: 94.9

Q: And the “cell viability, IGR37 Parental, 1μΜ” value (IGR37 cells (parental); IGR37 Parental, 1μΜ, 72 h, in %)?
A: 102.6

Q: What about the cell viability, IGR37 XP, 10μΜ ([2]; IGR37 XP, 10μΜ, 72 h) of the same compound?
A: 85.4%

Q: And the “cell viability, IGR37 XP, 1μΜ” value ([2]; IGR37 XP, 1μΜ, 72 h, in %)?
A: 98.9

Q: And the “cell viability, 501Mel Parental, 1μΜ” value (501Mel cells (parental); 501Mel Parental, 1μΜ, 72 h, in %)?
A: 94.3

Q: And the “cell viability, 501Mel Parental, 10μΜ” value (501Mel cells (parental); 501Mel Parental, 10μΜ, 72 h, in %)?
A: 76.0

Q: What about the “cell viability, A375 Parental, 1μΜ” value (A375 cells (parental); A375 Parental, 1μΜ, 72 h, in %) of the same compound?
A: 99.8

Q: What about the “cell viability, A375 Parental, 10μΜ” value (A375 cells (parental); A375 Parental, 10μΜ, 72 h, in %) of the same compound?
A: 78.1

Q: What about the “cell viability, A375 GP, 1μΜ” value ([3]; A375 GP, 1μΜ, 72 h, in %) of the same compound?
A: 95.9

Q: And the “cell viability, A375 GP, 10μΜ” value ([3]; A375 GP, 10μΜ, 72 h, in %)?
A: 86.4

Q: And the “cell viability, 501Mel XP, 1μΜ” value ([4]; 501Mel XP, 1μΜ, 72 h, in %)?
A: 92.5

Q: And the “cell viability, 501Mel XP, 10μΜ” value ([4]; 501Mel XP, 10μΜ, 72 h, in %)?
A: 76.3

Q: And the “cell viability, 501Mel GP, 1μΜ” value ([5]; 501Mel GP, 1μΜ, 72 h, in %)?
A: 100.2

Q: What about the “cell viability, 501Mel GP, 10μΜ” value ([5]; 501Mel GP, 10μΜ, 72 h, in %) of the same compound?
A: 76.0

Q: What about the “cell viability, A375 XP, 1μΜ” value ([6]; A375 XP, 1μΜ, 72 h, in %) of the same compound?
A: 100.0

Q: What about the “cell viability, A375 XP, 10μΜ” value ([6]; A375 XP, 10μΜ, 72 h, in %) of the same compound?
A: 92.8

Q: How did the “cell viability (kinase inhibitor library screening)” value ([1]; IGR37 GP, 1μΜ, in %) turn out when `Cc1cccc(-c2[nH]c(C(C)(C)C)nc2-c2ccc3nccnc3c2)n1` [SB 525334] was run?
A: 99.0

Q: What about the “cell viability (kinase inhibitor library screening)” value ([1]; IGR37 GP, 10μΜ, in %) of the same compound?
A: 73.8

Q: And the “cell viability (kinase inhibitor library screening)” value (IGR37 cells (parental); IGR37 Parental, 1μΜ, in %)?
A: 104.1

Q: And the “cell viability (kinase inhibitor library screening)” value (IGR37 cells (parental); IGR37 Parental, 10μΜ, in %)?
A: 104.6

Q: What about the “cell viability (kinase inhibitor library screening)” value ([2]; IGR37 XP, 1μΜ, in %) of the same compound?
A: 91.6

Q: And the “cell viability (kinase inhibitor library screening)” value ([2]; IGR37 XP, 10μΜ, in %)?
A: 60.0

Q: What about the “cell viability (kinase inhibitor library screening)” value (501Mel cells (parental); 501Mel Parental, 1μΜ, in %) of the same compound?
A: 98.2

Q: And the “cell viability (kinase inhibitor library screening)” value (501Mel cells (parental); 501Mel Parental, 10μΜ, in %)?
A: 90.3

Q: What about the “cell viability (kinase inhibitor library screening)” value (A375 cells (parental); A375 Parental, 1μΜ, in %) of the same compound?
A: 112.1

Q: What about the “cell viability (kinase inhibitor library screening)” value (A375 cells (parental); A375 Parental, 10μΜ, in %) of the same compound?
A: 110.1

Q: What about the “cell viability (kinase inhibitor library screening)” value ([3]; A375 GP, 1μΜ, in %) of the same compound?
A: 114.6

Q: And the “cell viability (kinase inhibitor library screening)” value ([3]; A375 GP, 10μΜ, in %)?
A: 93.3

Q: What about the “cell viability (kinase inhibitor library screening)” value ([4]; 501Mel XP, 1μΜ, in %) of the same compound?
A: 100.5

Q: What about the “cell viability (kinase inhibitor library screening)” value ([4]; 501Mel XP, 10μΜ, in %) of the same compound?
A: 78.5

Q: And the “cell viability (kinase inhibitor library screening)” value ([5]; 501Mel GP, 1μΜ, in %)?
A: 110.1

Q: What about the “cell viability (kinase inhibitor library screening)” value ([5]; 501Mel GP, 10μΜ, in %) of the same compound?
A: 89.8

Q: What about the “cell viability (kinase inhibitor library screening)” value ([6]; A375 XP, 1μΜ, in %) of the same compound?
A: 109.3

Q: What about the “cell viability (kinase inhibitor library screening)” value ([6]; A375 XP, 10μΜ, in %) of the same compound?
A: 103.4

Q: `CC(C)(C)c1cnc(CSc2cnc(NC(=O)C3CCNCC3)s2)o1` [SNS-032 (BMS-387032)] was tested. Which “cell viability (kinase inhibitor library screening)” value ([1]; IGR37 GP, 1μΜ, 72 h) did it give?
A: 8.6%

Q: What about the “cell viability (kinase inhibitor library screening)” value ([1]; IGR37 GP, 10μΜ, 72 h) of the same compound?
A: 2.7%

Q: What about the “cell viability (kinase inhibitor library screening)” value (IGR37 cells (parental); IGR37 Parental, 1μΜ, 72 h) of the same compound?
A: 3.3%

Q: What about the “cell viability (kinase inhibitor library screening)” value (IGR37 cells (parental); IGR37 Parental, 10μΜ, 72 h) of the same compound?
A: 0.754%

Q: And the “cell viability (kinase inhibitor library screening)” value ([2]; IGR37 XP, 1μΜ, 72 h)?
A: 2.8%

Q: What about the “cell viability (kinase inhibitor library screening)” value ([2]; IGR37 XP, 10μΜ, 72 h) of the same compound?
A: 2.1%

Q: And the “cell viability (kinase inhibitor library screening)” value (501Mel cells (parental); 501Mel Parental, 1μΜ, 72 h)?
A: 23.5%

Q: And the “cell viability (kinase inhibitor library screening)” value (501Mel cells (parental); 501Mel Parental, 10μΜ, 72 h)?
A: 0.4%

Q: What about the “cell viability (kinase inhibitor library screening)” value (A375 cells (parental); A375 Parental, 10μΜ, 72 h) of the same compound?
A: 7.7%

Q: What about the “cell viability (kinase inhibitor library screening)” value (A375 cells (parental); A375 Parental, 1μΜ, 72 h) of the same compound?
A: 13.7%

Q: What about the “cell viability (kinase inhibitor library screening)” value ([3]; A375 GP, 1μΜ, 72 h) of the same compound?
A: 8.3%

Q: And the “cell viability (kinase inhibitor library screening)” value ([3]; A375 GP, 10μΜ, 72 h)?
A: 3.6%

Q: What about the “cell viability (kinase inhibitor library screening)” value ([4]; 501Mel XP, 1μΜ, 72 h) of the same compound?
A: 30.8%

Q: And the “cell viability (kinase inhibitor library screening)” value ([4]; 501Mel XP, 10μΜ, 72 h)?
A: -0.0482%

Q: And the “cell viability (kinase inhibitor library screening)” value ([5]; 501Mel GP, 1μΜ, 72 h)?
A: 31.8%

Q: And the “cell viability (kinase inhibitor library screening)” value ([5]; 501Mel GP, 10μΜ, 72 h)?
A: 0.161%

Q: And the “cell viability (kinase inhibitor library screening)” value ([6]; A375 XP, 1μΜ, 72 h)?
A: 14.3%

Q: And the “cell viability (kinase inhibitor library screening)” value ([6]; A375 XP, 10μΜ, 72 h)?
A: 6.4%
